Reference: patent US9744177B2, “Treatment of male androgen deficiency symptoms or diseases with sex steroid precursor combined with SERM” (ENDORECHERCHE, INC., priority 2014, dated 2017)
Entries after “also recorded” stand apart in the source; their conditions may differ. Where a name gives a salt, the structure may show the parent alone. Read-outs that look alike come from different tables or passages of the source. Marks after values point to notes of the source that are not given here.

Legend:
[1] = test system: human ZR-75-1 breast tumors; assay: ZR-75-1 tumor growth in ovariectomized nude mice in absence of estrone (agonistic effects); conditions: no estrone, 200 μg daily, 161 days
[2] = test system: biochemical parameters of bone metabolism; assay: Treatment of rats with DHEA and EM-800 alone or in combination: biochemical parameters of bone metabolism, serum lipids; assay type: in vivo; conditions: rat; for effect on serum cholesterol / effect on serum triglycerides: 9 months, DHEA 10 mg percutaneously, EM-800 75 μg orally, once daily (FIG. 10)
From the text: Data are expressed as the means±SEM. **: p<0.01 experimental versus respective control.
It is thus important to analyze the changes in biochemical parameters of bone metabolism induced by various compounds and treatments in order to gain a better knowledge of their action (Table 2).
It is particularly important to indicate that the combination of DHEA and acolbifene exerted unexpected beneficial effects on important biochemical parameters of bone metabolism. […] Moreover, no effect of DHEA could be detected on daily urinary calcium or phosphorus excretion (Luo, Sourla et al. 1997). EM-800 (prodrug of acolbifene free salt) decreased the urinary hydroxyproline/creatinine ratio by 48% while, similarly to DHEA, no effect of EM 800 (prodrug of acolbifene, free salt) was seen on urinary calcium or phosphorus excretion. EM-800, moreover, had no effect on serum alkaline phosphatase activity, a marker of bone formation while DHEA increased the value of the parameter by about 75% (Luo, Sourla et al. 1997).

[3] = test system: ovariectomized female rats; assay: 5-week treatment of ovariectomized female rats with SERMs alone or with DHEA: BMD (Example 4); assay type: in vivo, Sprague-Dawley rats; conditions: OVX rats, 5 weeks; SERMs 2.5 mg/kg oral, DHEA 80 mg/kg topical
Description: (§1) Ten to twelve week-old female Sprague-Dawley rats (Crl:CD(SD)Br) (Charles River Laboratory, St-Constant, Canada) weighing approximately 220-270 g at start of treatment were used. The animals were acclimatized to the environmental conditions (temperature: 22±3° C.; humidity: 50±20%; 12-h light-12-h dark cycles, lights on at 07:15 h) for at least 1 week before starting the experiments. The animals were housed individually and were allowed free access to tap water and a pelleted certified rodent feed (Lab Diet 5002, Ralston Purina, St-Louis, Mo.). Experiments were conducted in an animal facility approved by the Canadian Council on Animal Care (CCAC) and the Association for Assessment and Accreditation of Laboratory Animal Care (AAALAC) in accordance with the CCAC Guide for Care and Use of Experimental Animals.
(§2) On Day 1 of the study, the animals of the appropriate groups were bilaterally ovariectomized (OVX) under isoflurane anesthesia. The DHEA was applied topically on the dorsal skin as a solution in 50% ethanol-50% propylene glycol while the tested SERMs were administered as suspension in 0.4% methylcellulose by oral gavage. Treatments were initiated on Day 2 of the study and were performed once daily during 5 weeks.
After 5 weeks of treatment, individual rats under Isoflurane anesthesia had their lumbar spine, femur and tibia scanned using dual energy x-ray absorptiometry (DEXA; QDR 4500A, Hologic, Waltham, Mass.) and a Regional High Resolution Scan software. The bone mineral density (BMD) of the lumbar spine (vertebrae L2 to L4), distal femoral metaphysis (DFM) and proximal tibial metaphysis (PTM) were determined.
Data are expressed as means±SEM. Statistical significance was determined according to the multiple-range test of Duncan-Kramer {Kramer, 1956 #37421.

[4] = 50 mg daily, 6 months, cited from earlier work
[5] = 6 months; cited from earlier work
ovariectomized rats = assay: 12-month treatment of ovariectomized rats with DHEA alone or with Flutamide or EM-800: bone histomorphometry, bone markers, serum lipids; assay type: in vivo, rat; conditions: OVX rats
[6] = test system: ovariectomized female rats; assay: 26-week treatment of ovariectomized female rats: lumbar spine BMD, total fat, cholesterol, ALP (Example 3, experiment 2); assay type: in vivo, Sprague-Dawley rats; conditions: OVX rats, 26 weeks, serum
Description: as §1, with “Experiments were conducted in an animal facility approved by the Canadian Council on Animal Care (CCAC) and the Association for Assessment and Accreditation of Laboratory Animal Care (AAALAC) in accordance with the CCAC Guide for Care and Use of Experimental Animals.” left out
(§3) After 3 months (experiment 1) or 26 weeks (experiment 2) of treatment, individual rats under Isoflurane anesthesia had their whole body skeleton and lumbar spine scanned using dual energy x-ray absorptiometry (DEXA; QDR 4500A, Hologic, Waltham, Mass.) and a Regional High Resolution Scan software. The bone mineral density (BMD) of the lumbar spine (vertebrae L2 to L4) and the total body composition (fat percentage) were determined.
After 3 months (experiment 1) or 26 weeks (experiment 2) of treatment, blood samples were collected at the jugular vein from overnight fasted animals (under Isoflurane anesthesia). […] Serum cholesterol levels and alkaline phospatase activity (ALP) were determined using the Boehringer Mannheim Diagnostic Hitachi 911 Analyzer (Boehringer Mannheim Diagnostic Laboratory Systems).
Data are expressed as means±SEM. […]

[7] = test system: ovariectomized female rats; assay: 3-month treatment of ovariectomized female rats: lumbar spine BMD, total fat, cholesterol, ALP (Example 3, experiment 1); assay type: in vivo, Sprague-Dawley rats; conditions: OVX rats, 3 months, serum
Description: as §1
as §2, with “while the other tested compounds” for “while the tested SERMs”, “other tested compounds were administered” for “the tested SERMs were administered”, “daily during 3 months.” for “daily during 5 weeks.”
as §3
After 3 months (experiment 1) or 26 weeks (experiment 2) of treatment, blood samples were collected at the jugular vein from overnight fasted animals (under Isoflurane anesthesia). Samples were processed for serum preparation and frozen at −80° C. until assay. Serum cholesterol levels and alkaline phospatase activity (ALP) were determined using the Boehringer Mannheim Diagnostic Hitachi 911 Analyzer (Boehringer Mannheim Diagnostic Laboratory Systems).
Data are expressed as means±SEM. Statistical significance was determined according to the multiple-range test of Duncan-Kramer (Kramer 1956).

ovariectomized mice = assay: Estrogenic activity: uterine and vaginal weight in ovariectomized mice, compounds alone; assay type: in vivo, BALB/c mice; conditions: OVX mice, no estrone; daily oral 1 μg and 10 μg
Description: (§4) Female BALB/c mice (BALB/cAnNCrlBR) weighing 18-20 g were obtained from Charles-River, Inc. (St-Constant, Quebec, Canada) and housed 5 per cage in a temperature (23±1° C.)- and light (12 h light/day, lights on at 7:15)-controlled environment. The mice were fed rodent chow and tap water ad libitum. The animals were ovariectomized (OVX) under Isoflurane anesthesia via bilateral flank incisions and randomly assigned to groups of 10 animals. Ten mice were kept intact as controls.
(§5) In the second experiment (Table 4), TSE 424 was administered orally by gavage once daily at doses of 1, 3, 10 or 30 μg/animal for 9 days, starting 2 days after ovariectomy. In both experiments, to evaluate the antiestrogenic activity, treatment with estrone (E1, 0.06 μg, s.c. injection, twice daily) was started 5 days post-ovariectomy and was administered for a 6 day-period. Compounds were dissolved in ethanol (4% final concentration) and administered in 0.4% methylcellulose. Mice in the intact and OVX control groups received the vehicle alone (4% ETOH-0.4% methylcellulose) during the 9-day period. The animals were killed by exsanguination at the abdominal aorta on the 11th morning following ovariectomy. The uteri and vagina were rapidly dissected, weighed, and kept in 10% buffered formalin for further histologic examination.

[8] = test system: estrone-stimulated uterine weight; assay: Antiestrogenic activity: estrone-stimulated uterine weight in ovariectomized mice; assay type: in vivo, BALB/c mice; conditions: OVX mice + estrone; any dose used (1, 3 or 10 μg)
Description: as §4, §5

uterine epithelial cells = assay: Thickness of uterine (endometrial) epithelial cells in ovariectomized nude mice; conditions: no estrone, 200 μg daily
serum testosterone = assay: Serum testosterone in male cynomolgus monkeys dosed orally; assay type: in vivo; conditions: oral 2.5, 10 or 40 mg acolbifene/day, 13 weeks
Description: FIG. 13: Male cynomolgus monkeys were dosed orally with 2.5, 10 or 40 mg acolbifene/day for 13 weeks. Control monkeys received vehicle alone (0.4% methylcellulose). […] Results are expressed as the mean±SEM of 4 monkeys per group. P values (versus control) were calculated using a two-sided t test assuming equality of variances. FIG. 14: […] Control monkeys received vehicle alone (0.4% methylcellulose). […] P values (versus control) were calculated using a two-sided t test assuming equality of variances.

serum E2 levels = assay: Serum E2 in a premenopausal person with advanced breast cancer on acolbifene; assay type: in vivo, human; conditions: 20 mg daily oral, 6 months, from 222 before

CC/C(=C(\c1ccccc1)c1ccc(OCCN(C)C)cc1)c1ccccc1 [tamoxifen, (Z)-2-[4-(1,2-diphenyl-1-butenyl)phenoxy]-N,N-dimethylethanamine]
stimulatory effect on tumor growth (FIG. 15) ([1]; OVX nude mice): approximately 100%

CC/C(=C(/c1ccc(OCCN(C)C)cc1)c1cccc(O)c1)c1ccccc1 [droloxifene, (E)-3-[1-[4-[2-(Dimethylamino)ethoxy]phenyl]-2-phenyl-1-butenyl]phenol]
effect of compound alone on ZR-75-1 tumor size compared to OVX control [1]: did not significantly change

Cl.O=C(c1ccc(OCCN2CCCCC2)cc1)c1c(-c2ccc(O)cc2)sc2cc(O)ccc12 [raloxifene, [2-(4-hydroxyphenyl)-6-hydroxybenzo[b]thien-3-yl][4-[2-(1-piperidinyl)ethoxy]phenyl]-methanone hydrochloride]
effect of compound alone on ZR-75-1 tumor size compared to OVX control [1]: did not significantly change

CC1=C(c2ccc(OC(=O)C(C)(C)C)cc2)[C@H](c2ccc(OCCN3CCCCC3)cc2)Oc2cc(OC(=O)C(C)(C)C)ccc21 [EM-800, (S)-(+)-4-[7-(2,2-dimethyl-1-oxopropoxy)-4-methyl-2-[4-[2-(1-piperidinyl)-ethoxy]phenyl]-2H-1-benzopyran-3-yl]-phenyl 2,2-dimethylpropanoate]
effect on serum cholesterol [2]: decreases | effect on serum triglycerides [2]: decreases | URINE HP/Cr (hydroxyproline/creatinine ratio) ([2]; DHEA 10 mg, EM-800 75 μg): 6.81 ± 0.84** μmol/mmol

C[C@]12CC[C@H](O)CC1=CC[C@@H]1[C@@H]2CC[C@]2(C)C(=O)CC[C@@H]12 [DHEA, dehydroepiandrosterone]
DISTAL FEMORAL METAPHYSIS (DFM) BMD [3]: 0.2934 ± 0.0046 g/cm^2 | DISTAL FEMORAL METAPHYSIS (DFM) Prevention of Bone Loss [3]: 71% | LUMBAR SPINE (L2-L4) BMD [3]: 0.2144 ± 0.0028 g/cm^2 | LUMBAR SPINE (L2-L4) Prevention of Bone Loss [3]: 44% | PROXIMAL TIBIAL METAPHYSIS (PFM) BMD [3]: 0.2672 ± 0.0041 g/cm^2 | PROXIMAL TIBIAL METAPHYSIS (PFM) Prevention of Bone Loss [3]: 42% | effect on serum cholesterol [2]: no effect | effect on serum triglycerides [2]: inhibitory effect | decrease of responsiveness of serum insulin to the glucose tolerance test [4]: 13% | improvement in the insulin sensitivity index [4]: 34% | decrease of abdominal subcutaneous fat ([4]; both women and men): 6% | decrease of abdominal visceral fat ([4]; men 65 to 78 years): 7.4% | decrease of abdominal visceral fat ([4]; women 65 to 78 years): 10.2% | decrease of total body fat mass [5]: 1.4 kg | increase of fat-free mass [5]: 0.9 kg | increase in trabecular bone number compared to ovariectomized controls (ovariectomized rats): 137% | reduction (inhibitory effect) of serum cholesterol (ovariectomized rats): 22% | trabecular bone number (ovariectomized rats): 1.27±0.1 per mm | trabecular bone volume of the tibia (ovariectomized rats): 11.9±0.6% | Alkaline phosphatase (ovariectomized rats; serum): 201±25 IU/L | CHOLESTEROL (ovariectomized rats; serum): 1.78 ± 0.16 mmol/L | Triglycerides (ovariectomized rats; serum): 0.8 ± 0.1 mmol/L | OH-proline/creatinine (ovariectomized rats; urine): 7.3±1.0 μmol/mmol

Oc1ccc2c(c1)CC[C@H](c1ccccc1)[C@@H]2c1ccc(OCCN2CCCC2)cc1 (racemic) [lasofoxifene, (−)-cis-(5R,6S)-6-phenyl-5-[4-(2-pyrrolidin-1-ylethoxy)phenyl]-5,6,7,8-tetrahydronaphthalen-2-ol, D-(−)-tartrate salt]
CHOLESTEROL [6]: 0.60 ± 0.02 mmol/L

C[C@]12CC[C@@H]3c4ccc(O)cc4CC[C@H]3[C@@H]1CC[C@@H]2O [E2, 17β-estradiol]
ALP [7]: 59 ± 4 IU/L

CC/C(=C(\c1ccccc1)c1ccc(/C=C/C(=O)O)cc1)c1ccccc1 [GW 5638]
ALP [7]: 72 ± 6 IU/L | effect of compound alone on ZR-75-1 tumor size compared to OVX control [1]: did not significantly change

Oc1ccc2c(c1)CC[C@@H](c1ccccc1)[C@H]2c1ccc(OCCN2CCCC2)cc1 (single isomer, unassigned) [inactive enantiomer of lasofoxifene]
stimulatory effect on uterine weight (ovariectomized mice): no stimulatory effect | stimulatory effect on vaginal weight (ovariectomized mice): no stimulatory effect | inhibitory effect on estrone-stimulated uterine weight [8]: no inhibitory effect

CC1=C(c2ccc(O)cc2)[C@H](c2ccc(OCCN3CCCCC3)cc2)Oc2cc(O)ccc21.Cl [EM-652.HCl, (S)-(+)-7-hydroxy-3-(4′-hydroxyphenyl)-4-methyl-2-(4″-(2′″-piperidinoethoxy)phenyl)-2H-1-benzopyran hydrochloride]
CHOLESTEROL [6]: 0.98 ± 0.06 mmol/L | ALP [7]: 91 ± 6 IU/L | CHOLESTEROL [7]: 0.87 ± 0.04 mmol/L | height of uterine epithelial cells, % of the OVX control group value (uterine epithelial cells): 114% | effect of compound alone on ZR-75-1 tumor size compared to OVX control ([1]; hydrochloride): did not exert any stimulatory effect; also recorded: did not significantly change | effect of compound alone on ZR-75-1 tumor size compared to OVX control ([1]; listed as Acolbifene, hydrochloride): no effect on tumor growth | serum testosterone levels (FIGS. 13 and 14) (serum testosterone): increased serum testosterone levels | serum E2 levels (serum E2 levels): 2030 pg/mL

CN(C)CCOc1ccc(/C(=C(/CCCl)c2ccccc2)c2ccccc2)cc1 [toremifene, (Z)-2-[4-(4-Chloro-1,2-diphenyl-1-butenyl)phenoxy]-N,N-dimethylethanamine]
average tumor size increase over baseline ([1]; OVX nude mice): 86%
